Here are results for eleven compounds from US7700593B2, “Imidazo- and triazolo-pyridine compounds and methods of use thereof” (Amgen Inc., priority 2006, dated 2010).

One experiment has as its target p38α (Homo sapiens, UniProt Q16539). In words: p38 in-vitro HTRF enzyme assay. It is filed as biochemical. Conditions: IC50 value ranges. On the procedure:
p38 In-Vitro HTRF Enzyme Assay
The compounds of the invention can be tested for their respective affinities for the p38 protein using a conventional p38 in-vitro enzyme activity assay. For example, a P38-alpha HTRF assay may be used to measure the protein's in-vitro phosphorylation activity, and the data analyzed using time resolved fluorimetry techniques (FRET). A p38 HTRF assay is as follows. The kinase reaction buffer for p38α, p38β, p38δ and p38γ HTRF assays consists of 50 mM Tris-pH 7.5, 5 mM MgCl2, 0.1 mg/mL BSA, 100 μM Na3VO4 and 0.5 mM DTT. The HTRF detection buffer contains 100 mM HEPES-pH 7.5, 100 mM NaCl, 0.1% BSA, 0.05% Tween-20, and 10 mM EDTA. Each compound was dissolved in 100% DMSO and serially diluted (3 fold, 10 point) in a polypropylene 96-well microtiter plate (drug plate). The final starting concentration of the compound in the p38α and p38β enzymatic assays was about 1 μM. The final starting concentration of each compound in the p38δ and p38γ enzymatic assays was about 10 μM. The p38α, p38β, p38δ and p38γ kinase reactions were carried out in a polypropylene 96-well black round bottom assay plate in total volume of 30 μL kinase reaction buffer. Appropriate concentration of purified and activated enzyme (recombinant human) was mixed with indicated concentration of ATP and 100 nM GST-ATF2-Avitag, in the presence or absence (HI control) of each compound. In the absence of enzyme, the background was measured as LO control. HI controls and LO controls contained only DMSO. The reaction was allowed to incubate for 1 hour at RT. […] After 60 minutes incubation at room temperature, the assay plate was read in a Discovery Plate Reader. The wells were excited with coherent 320 nm light and the ratio of delayed ([…] post excitation) emissions at […] (native europium fluorescence) and 665 nm (europium fluorescence transferred to allophycocyanin—an index of substrate phosphorylation) was determined (Park et al, 1999). The resulting data was analyzed by taking the proportion of substrate phosphorylated in the kinase reaction in the presence of each individual compound and comparing it with that phosphorylated in the presence of DMSO vehicle alone (HI control). The data was calculated using the formula: % control (POC)=(compound−average LO)/(average HI−average LO)*100. Data (consisting of POC and inhibitor concentration in μM) was fitted to a 4-parameter equation (y=A+((B−A)/(1+((x/C)^D))), where A is the minimum y (POC) value, B is the maximum y (POC), C is the x (compound concentration) at the point of inflection and D is the slope factor, using a Levenburg-Marquardt non-linear regression algorithm. The inhibition constant (Ki) of the inhibitor was estimated from the IC50 (compound concentration at the point of inflection C) using the Cheng-Prussof equation: Ki=IC50/(1+S/Km), where S is the ATP substrate concentration, and Km is the Michaelis constant for ATP as determined experimentally. All results were expressed as the mean±the standard error of the mean. Data acquisition and non-linear regression algorithms were performed using Activity Base v5.2 and XLfit software v4.1 respectively. Additional assay information may be obtained in Park Y W, Cummings R T, Wu L, et al. Homogeneous Proximity Tyrosine Kinase Assays Scintillation Proximity Assay versus Homogeneous Time-Resolved Fluorescence. Analytical Biochemistry. 1999; 269: 94-104.
(In TR-FRET formats the signal depends on donor and acceptor labels being close together.)

In another experiment the test system is THP1 cells. As to the kind of experiment: Lipopolysaccharide-activated THP1 cell TNF production assay. Conditions: Homo sapiens, THP-1; LPS-induced TNF-α production in THP1 cells. It is filed as cell-based, human. The method, then: Lipopolysaccharide-Activated THP1 Cell TNF Production Assay
THP1 cells are resuspended in fresh THP1 media (RPMI 1640, 10% heat-inactivated FBS, 1×PGS, 1×NEAA, plus 30 μM βME) at a concentration of 1E6/mL. One hundred microliters of cells per well are plated in a polystyrene 96-well tissue culture. One microgram per mL of bacterial LPS is prepared in THP1 media and is transferred to the wells. Test compounds are dissolved in 100% DMSO and are serially diluted 3-fold in a polypropylene 96-well microtiter plate (drug plate). HI control and LO control wells contain only DMSO. One microliter of test compound from the drug plate followed by 10 μL of LPS are transferred to the cell plate. The treated cells are induced to synthesize and secrete TNF-α at 37° C. for 3 h. Forty microliters of conditioned media are transferred to a 96-well polypropylene plate containing 110 μL of ECL buffer (50 mM Tris-HCl pH 8.0, 100 mM NaCl, 0.05% Tween 20, 0.05% NaN3 and 1% FBS) supplemented with 0.44 nM MAB610 monoclonal Ab (R&D Systems), 0.34 nM ruthenylated AF210NA polyclonal Ab (R&D Systems) and 44 μg/mL sheep anti-mouse M280 Dynabeads (Dynal). After a 2 h incubation at room temperature with shaking, the reaction is read on the ECL M8 Instrument (IGEN Inc.). A low voltage is applied to the ruthenylated TNF-α immune complexes, which in the presence of TPA (the active component in Origlo), results in a cyclical redox reaction generating light at […]. The amount of secreted TNF-α in the presence of compound compared with that in the presence of DMSO vehicle alone (HI control) is calculated using the formula: % control (POC)=(cpd−average LO)/(average HI−average LO)*100. Data (consisting of POC and inhibitor concentration in μM) is fitted to a 4-parameter equation (y=A+((B−A)/(1+((x/C)^D))), where A is the minimum y (POC) value, B is the maximum y (POC), C is the x (cpd concentration) at the point of inflection and D is the slope factor) using a Levenburg-Marquardt non-linear regression algorithm.

In another experiment the test system is monocytes. As to the kind of experiment: Lipopolysaccharide-activated monocyte TNF production assay (LPS induced TNF release). It is filed as cell-based, human. Conditions: Homo sapiens, Monocyte; LPS induced TNF release from monocytes; read-out: LPS induced TNFa. On the procedure:
Lipopolysaccharide-Activated Monocyte TNF Production Assay
Test compounds were evaluated in vitro for the ability to inhibit the production of TNF by monocytes activated with bacterial lipopolysaccharide (LPS). Fresh residual source leukocytes (a byproduct of plateletpheresis) were obtained from a local blood bank, and peripheral blood mononuclear cells (PBMCs) were isolated by density gradient centrifugation on Ficol-Paque Plus (Pharmacia). PBMCs were suspended at 2×10^6/mL in DMEM supplemented to contain 2% FCS, 10 mM, 0.3 mg/mL […], 100 U/mL penicillin G and […] streptomycin sulfate (complete media). Cells were plated into Falcon flat bottom, 96 well culture plates (200 μL/well) and cultured overnight at 37° C. and 6% CO2. Non-adherent cells were removed by washing with 200 μl/well of fresh medium. Wells containing adherent cells (˜70% monocytes) were replenished with 100 μL of fresh medium.
Preparation of Test Compound Stock Solutions
Test compounds were dissolved in […]. Compound stock solutions were prepared to an initial concentration of […]. Stocks were diluted initially to […] in complete media. Nine two-fold serial dilutions of each compound were then prepared in complete medium.
Treatment of Cells with Test Compounds and Activation of TNF Production with Lipopolysaccharide
One hundred microliters of each test compound dilution were added to microtiter wells containing adherent monocytes and 100 μL complete medium. Monocytes were cultured with test compounds for 60 min at which time 25 μL of complete medium containing 30 ng/mL lipopolysaccharide from E. coli K532 were added to each well. Cells were cultured an additional 4 hrs. Culture supernatants were then removed and TNF presence in the supernatants was quantified using an ELISA.
Flat bottom, 96 well Corning High Binding ELISA plates were coated overnight (4° C.) with 150 μL/well of 3 μg/mL murine anti-human TNF-α MAb (R&D Systems #MAB210). Wells were then blocked for 1 h at room temperature with 200 μL/well of CaCl2-free ELISA buffer supplemented to contain 20 mg/mL BSA (standard ELISA buffer: […], 150 mM NaCl, 2 mM CaCl2, 0.15 mM thimerosal, pH 7.4). Plates were washed and replenished with 100 μL of test supernatants (diluted 1:3) or standards. Standards consisted of eleven 1.5-fold serial dilutions from a stock of 1 ng/mL recombinant human TNF (R&D Systems). Plates were incubated at room temperature for 1 h on orbital shaker (300 rpm), washed and replenished with 100 μL/well of 0.5 μg/mL goat anti-human TNF-α (R&D systems #AB-210-NA) biotinylated at a 4:1 ratio. Plates were incubated for 40 min, washed and replenished with 100 μL/well of alkaline phosphatase-conjugated streptavidin (Jackson ImmunoResearch #016-050-084) at 0.02 μg/mL. Plates were incubated 30 min, washed and replenished with 200 μL/well of 1 mg/mL of p-nitrophenyl phosphate.
Standard curve data were fit to a second order polynomial and unknown TNF-α concentrations determined from their OD by solving this equation for concentration. TNF concentrations were then plotted vs. test compound concentration using a second order polynomial. This equation was then used to calculate the concentration of test compounds causing a 50% reduction in TNF production.

A value given as a limit tells only on which side of the number the result lay.

Chain of p38α (Q16539 whole entry): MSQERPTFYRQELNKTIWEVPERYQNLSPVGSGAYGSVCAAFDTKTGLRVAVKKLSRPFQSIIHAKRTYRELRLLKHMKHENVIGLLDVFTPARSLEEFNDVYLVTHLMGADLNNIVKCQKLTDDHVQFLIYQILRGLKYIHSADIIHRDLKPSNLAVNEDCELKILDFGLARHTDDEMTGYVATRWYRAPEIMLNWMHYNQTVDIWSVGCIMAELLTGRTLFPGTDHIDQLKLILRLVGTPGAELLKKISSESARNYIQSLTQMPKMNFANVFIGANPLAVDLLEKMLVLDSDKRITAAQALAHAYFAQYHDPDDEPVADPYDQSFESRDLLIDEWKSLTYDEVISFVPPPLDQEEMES

Take `Cc1ccc(C(=O)NC2CC2)cc1-c1ccn2c(-c3cc(F)ccc3Cl)nnc2c1` [Example 46, 3-(3-(2-chloro-5-fluorophenyl)[1,2,4]triazolo[4,3-a]pyridin-7-yl)-N-cyclopropyl-4-methylbenzamide]: the IC50 is less than 25 nM against p38α, less than 25 nM in the experiment with THP1 cells and 25 to 100 nM with monocytes.
As for `Cc1ccc(C(=O)NC2CC2)cc1-c1ccn2c(-c3cccc(S(C)(=O)=O)c3)nnc2c1` [Example 18, N-cyclopropyl-4-methyl-3-(3-(3-(methylsulfonyl)phenyl)[1,2,4]triazolo[4,3-a]pyridin-7-yl)benzamide], the IC50 is 25 to 100 nM at p38α, 250 to 1000 nM with THP1 cells and 100 to 250 nM with monocytes.
`Cc1ccc(C(=O)NC2CC2)cc1-c1ccn2c(C3CC3)nnc2c1` [Example 93, N-cyclopropyl-3-(3-cyclopropyl[1,2,4]triazolo[4,3-a]pyridin-7-yl)-4-methylbenzamide]: the values for the IC50 against p38α, in the experiment with THP1 cells and in the experiment on monocytes were less than 25 nM, 25 to 100 nM and 100 to 250 nM, respectively.
For `Cc1c(F)cc(C(=O)NC2CC2)cc1-c1ccn2c(-c3ccncc3Cl)nnc2c1` [Example 79, 3-(3-(3-chloro-4-pyridinyl)[1,2,4]triazolo[4,3-a]pyridin-7-yl)-N-cyclopropyl-5-fluoro-4-methylbenzamide], the figures for the IC50 against p38α, with THP1 cells and in the experiment on monocytes were less than 25 nM, less than 25 nM and 25 to 100 nM, respectively.
Take `Cc1ccc(C(=O)Nc2ccnn2C)cc1-c1ccn2c(-c3cccnc3C)nnc2c1` [Example 33, 4-methyl-N-(1-methyl-1H-pyrazol-5-yl)-3-(3-(2-methyl-3-pyridinyl)[1,2,4]triazolo[4,3-a]pyridin-7-yl)benzamide]: the IC50 against p38α was in the range of 25 to 100 nM; with THP1 cells, 100 to 250 nM; with monocytes it was 250 to 1000 nM.
With `Cc1c(F)cc(C(=O)NC2CC2)cc1-c1ccn2c(-c3c(Cl)cccc3Cl)nnc2c1` [Example 59, N-cyclopropyl-3-(3-(2,6-dichlorophenyl)[1,2,4]triazolo[4,3-a]pyridin-7-yl)-5-fluoro-4-methylbenzamide], the IC50 at p38α, with THP1 cells and in the experiment on monocytes was less than 25 nM throughout.
Turning to `Cc1ccc(C(=O)NC2CC2)cc1-c1ccn2c(-c3c(F)cccc3Cl)nnc2c1` [Example 63, 3-(3-(2-chloro-6-fluorophenyl)[1,2,4]triazolo[4,3-a]pyridin-7-yl)-N-cyclopropyl-4-methylbenzamide], the IC50 against p38α, in the experiment with THP1 cells and in the experiment on monocytes was less than 25 nM each time.
With `Cc1ccccc1-c1nnc2cc(-c3cc(C(=O)NC4CC4)cc(F)c3C)ccn12` [Example 82, N-cyclopropyl-3-fluoro-4-methyl-5-(3-(2-methylphenyl)[1,2,4]triazolo[4,3-a]pyridin-7-yl)benzamide], the IC50 on p38α, in the experiment with THP1 cells and in the experiment with monocytes was less than 25 nM throughout.
On to `Cc1ccc(C(=O)NC2CC2)cc1-c1cc(C)n2c(-c3ccccc3Cl)nnc2c1` [Example 6, 3-(3-(2-chlorophenyl)-5-methyl[1,2,4]triazolo[4,3-a]pyridin-7-yl)-N-cyclopropyl-4-methylbenzamide], for which the IC50 is less than 25 nM at p38α, less than 25 nM with THP1 cells and 25 to 100 nM with monocytes.
With `Cc1ccc(C(=O)NC(C)C)cc1-c1ccn2c(-c3ccccc3Cl)nnc2c1` [Example 43, 3-(3-(2-chlorophenyl)[1,2,4]triazolo[4,3-a]pyridin-7-yl)-4-methyl-N-(1-methylethyl)benzamide], the values for the IC50 at p38α, with THP1 cells and in the experiment with monocytes were 25 to 100 nM, 100 to 250 nM and 250 to 1000 nM, respectively.
For the compound `Cc1ccc(C(=O)NC2CC2)cc1-c1ccn2c(-c3ccccc3)nnc2c1` [Example 37, N-cyclopropyl-4-methyl-3-(3-phenyl[1,2,4]triazolo[4,3-a]pyridin-7-yl)benzamide], the values for the IC50 at p38α, in the experiment on THP1 cells and in the experiment with monocytes were less than 25 nM, 100 to 250 nM and 250 to 1000 nM, respectively.
